Data on 15 compounds can be found in patent publication US5763596A, “C-4' modified adenosine kinase inhibitors” (Metabasis Therapeutics, Inc., priority 1996, dated 1998).

The target of one data set is adenosine kinase. The experiment in a line: adenosine kinase (AK) inhibition. In kind it is biochemical, pig heart or recombinant human. The following applies: 0.5 μM [U-14C] adenosine, pH 7.0, 20 minutes. The method, then: Adenosine kinase activity was measured essentially as described by Yamada et al. (Yamada, Y., Goto, H., Ogasawara, N. (1988) Biochim. Biophys. Acta 660, 36-43.) with a few minor modifications. […] Natl. Acad. Sci. […] The reactions were incubated for 20 minutes at […] The assay was quenched upon spotting 30 μL aliquots onto 2 cm^2 pieces of Whatman DE81 anion exchange paper. The papersquares were washed for 3 minutes in 6 L distilled/deionized water to remove the unreacted adenosine. The washed squares were rinsed in 95% ethanol and dried in an oven at 100° C. for 10 minutes. The amount of ^14 C-AMP was quantified by scintillation counting.

The test system of another data set is Rats. The experiment in a line: anti-inflammatory activity, carrageenan paw. It is filed as in vivo, rat. The conditions noted are these: 10 mg/kg, swelling after 3 hours; for Carrageenan Paw (% inh) i.p.: 30 min before carrageenan; for Carrageenan Paw (% inh) p.o.: 1 h before carrageenan. The method, then:
Carrageenan (Type λ) was suspended in sterile PBS at 1% (w/v), autoclaved for 30 minutes, and stored at room temperature. Rats were pretreated with vehicle or AK inhibitor (10 mg/kg) by oral gavage or i.p. administration and the volume of the left hind paw was measured using a water displacement plethysmometer (Stoelting Co., Wood Dale, Ill.). One hour after oral treatment or 30 minutes after i.p. treatment, the rats were briefly anaesthetized, and 0.1 ml of the carrageenan solution was injected subcutaneously into the planar surface of the left hind paw. The ensuing paw swelling was measured by plethysmometry after 3 hours. The paw volume in milliliters was subtracted from the pre-injection paw volume. Data are presented in Table 8 as the percent inhibition of paw swelling in AK inhibitor treated animals, compared to vehicle treated control animals.
(Carrageenan injected into the paw causes an acute inflammation.)

For data set [1], the system named is male SA rats. The experiment in a line: rat skin lesion model, inhibition of neutrophil accumulation induced by carrageenan. In kind it is in vivo. The following applies: p.o., pretreatment 60 min. The method, then:
The dorsal skin of male SA rats was shaved and carrageenan (Type λ) or phosphate-buffered saline was injected intradermally. Three hours later, the injection sites were biopsied and weighed. Neutrophil content of the skin biopsies was measured as the quantity of myeloperoxidase (MPO) present in a tissue homogenate. The excised, weighed skin pieces were placed in 4 ml 0.5% mixed alkyl trimethylammonium bromide and homogenized at the highest speed for 15 seconds in a Polytron homogenizer (Brinkmann Instruments, Westbury, N.Y.). Lipids were extracted by adding 1 ml of dichloromethane to the homogenate, vortexing vigorously, and centrifuging at 1000 g, 5° C. for 15 min. Fifty μl of each supernatant was added in duplicate to a 96 well assay plate, along with dilutions of human myeloperoxidase standard. Potassium phosphate buffer (pH 6.1) containing 0.36 mg/ml of o-dianisidine dihydrochloride and 0.001% hydrogen peroxide was added (200 μl/well), and the absorbance at 450 nm was read after 5 min incubation at room temperature. The myeloperoxidase content of each skin piece was calculated from a standard curve constructed using least-square regression, and expressed as units of MPO/g of tissue.
AK inhibitors were administered orally using polyethylene glycol-400 as vehicle or intraperitoneally using dimethylsulfoxide as vehicle, at indicated time before skin lesion injection. For each experiment, the average of all values from saline-induced lesions was calculated. This baseline value was then subtracted from values obtained from carrageenan-induced lesions. Percent inhibition for AK inhibitors were calculated from these baseline-corrected values.

A further data set concerns Rats (male, Simonsen). The experiment in a line: formalin paw model. In kind it is in vivo, rat. More on the design: concentration or dose not given beside the values. The following applies: oral, 90 min before formalin. Here is the method:
In this assay, injection of formalin, an irritant, into the hindpaw of rats typically evokes a biphasic response of pain-related behaviors. Phase 1 of the response which is brief, lasting approximately 0-5 min post-injection,is followed by a more prolonged phase 2, lasting approximately 10-80 min post-injection. Phase 1 behavior is thought to be a direct effect of the irritant on nociceptors at the injection site while phase 2 behavior is thought to include a hyperalgesic component mediated by sensitization of neuronal elements within the spinal cord. Studies from other laboratories have found the first portion of Phase 2 (sometimes referred to as Phase 2a) to be most responsive to pharmacological manipulation.
Rats (male, Simonsen) weighing between 100-200 g, are used in the present experiments. For screening purposes drugs are administered orally 90 min prior to initiation of formalin test. At designated intervals the animals in groups of 4 are placed individually in a small animal restrainer with the right hindpaw accessible through a hole in the bottom of the restrainer. The formalin paw assay is initiated by the injection using a 30G needle of 50 μl of a 5% formalin solution in saline into the right plantar surface of each hindpaw. The rat is then immediately placed in a separate plexiglass box and scoring (described below) of the animal's behavior is begun at 1.7 min after formalin injection. The instantaneous behavior of each animal in a group of 4 was observed and assigned a score once in each 20 second interval. This sequence is repeated over a 30 min period. The scoring protocol is an adaptation of the method published by Dubuisson and Dennis (Pain 4:161-174, 1977) which assigns a score from 0-3 as follows:
0--no discernible favoring of injected paw, weight evenly distributed
1--injected paw is favored, rests lightly on floor
2--injected paw is elevated
3--injected paw is vigorously licked, bitten or shake
Scores are continuously recorded directly onto an Excel spreadsheet. […] 2) the total number of incidences specifically of licking/biting behavior is summed over Phase 2 and mean values determined from 6 different animals with results expressed as % inhibition compared to vehicle control.

The subject of another data set is Female SA rats. The experiment in a line: liver toxicity, serum SGOT, SGPT and total bilirubin. In kind it is in vivo, rat. The arrangement: unit not given here. The conditions noted are these: 2 x 37.5 μmol/kg i.v. infusion (total 75 μmol/kg), 12 h after second dose. Here is the method: Female SA rats (150-200 g) were anesthetized with halothane and cannulated via the internal jugular vein. The animals were allowed to recover for 3 days. […] Twelve hours later, an additional 37.5 μmol kg was infused over 40 minutes (total dose=75 μmol/kg). Twelve hours after the second dose, the animals were anesthetized with halothane and exsanguinated through the descending aorta. Serum was prepared and liver enzymes (serum glutamic-oxaloacetic transaminase (SGOT), serum glutamic-pyruvic transaminase (SGPT)) and total bilirubin in the serum samples were determined by a commercial laboratory.

Data set [2] concerns male SA rats. The experiment in a line: anticonvulsant activity, maximal electroshock (MES) model. It is filed as in vivo. The following applies: Rattus norvegicus, ip, 1 h before MES; >5 / <5: fewer / more than 50% of animals inhibited at 5 mg/kg in initial screen. Here is the method:
The anticonvulsant activity of the tested compounds was evaluated in male SA rats (100-150 g, Simonsen) using the maximal electroshock (MES) model described in Swinyard et al., Antiepileptic Drugs, 3d Ed. at 85-102 (Levy, et al., eds.), NY: Raven Press (1989). The rats were maintained on a 12/12 light/dark cycle in temperature controlled facilities with free access to food and water. For p.o. administration, the animals are fasted overnight, prior to the experiment. One hour prior to seizure testing, the animals were injected interperitoneally (ip) or orally (per os, po) with one of various doses of test compound dissolved in DMSO or PEG 400.
Maximal electroshock seizures (MES) were induced by administering a 150 mA, 60 Hz current for 0.2 seconds via corneal electrodes using a Wahlquist Model H stimulator. […] This endpoint was expressed as the percentage of animals in which the response was inhibited. Typically, compounds were screened initially at one hour following a dose of 5 mg/kg ip. […] The results for exemplary compounds of the invention are set forth in Table 8, expressed as ED50 values.

What is called IC50 is the concentration that inhibits the measured activity by half. In general, ED50 refers to the midpoint of the dose-response relation.

Counter-ions that a name gives are not always drawn.

“4-N-Phenylamino-5-phenyl-7-(4-C-methyl-β-D-ribofuranosyl)pyrrolo[2,3- d]pyrimidine [#81]” showed an IC50 against adenosine kinase of 45 nM. In addition, the “Carrageenan Paw (% inh) i.p.” value in the data set on Rats came out at 46%. Further, the “% inhibition of neutrophil accumulation” value in the data set with male SA rats [1] (10 mg/kg) is on record as 0%; in the data set on male SA rats [1] (20 mg/kg), 26%; in the data set on male SA rats [1] (30 mg/kg) it was 40%. In addition, the “% Inhibition Phase 1 Composite score” value with Rats (male, Simonsen) (1.7-5 min post-formalin) is reported as 24.8%. In addition, in the data set with Rats (male, Simonsen) (10.3-30 min post-formalin), the “% Inhibition Phase 2 Composite score” value is on record as 35.1%. For the same compound, in the data set with Rats (male, Simonsen) (Phase 2), the “% Inhibition Phase 2. Licking/biting” value was 67.8%.

With `O[C@@H]1[C@H](O)CO[C@H]1n1cc(-c2ccc(F)cc2)c2c(Nc3ccc(F)cc3)ncnc21` [#29], in the data set with Female SA rats, the “average serum Total Bilirubin” value is given as 0.16, the “average serum content of SGOT” value turned out to be 130 and the “average serum content of SGPT” value is given as 30.

Compound `O[C@@H]1[C@H](O)CO[C@H]1n1cc(-c2ccccc2)c2c(Nc3ccc(CCN4CCNCC4)cc3)ncnc21` [#43, 4-N-[4-(2-(1-Piperazino)ethyl)phenyl]amino-5-phenyl-7-(β-D-erythrofuranosyl)pyrrolo[2,3-d]pyrimidine trihydrochloride salt] had an IC50 at adenosine kinase of 3.5 nM. Moreover, in the data set with Rats, the “Carrageenan Paw (% inh) i.p.” value came out at 65% and the “Carrageenan Paw (% inh) p.o.” value worked out at 34%. Besides, in the data set on Female SA rats, the “average serum Total Bilirubin” value came out at 0.1, the “average serum content of SGOT” value is 99 and the “average serum content of SGPT” value was 58.

Turning to `OCC1(CO)O[C@@H](n2cc(-c3ccccc3)c3c(Nc4ccccc4)ncnc32)[C@H](O)[C@@H]1O` [compound 1], at adenosine kinase, the IC50 came out at 1.2 nM. Moreover, in the data set with Rats, the “Carrageenan Paw (% inh) i.p.” value came out at 3% and the “Carrageenan Paw (% inh) p.o.” value was 18%. Also, in the data set on Female SA rats, the “average serum Total Bilirubin” value is 0.1, the “average serum content of SGOT” value amounted to 65 and the “average serum content of SGPT” value is recorded as 53.

On adenosine kinase, `CN(C)Cc1ccc(Nc2ncnc3c2c(-c2ccccc2)cn3[C@@H]2O[C@@](C)(CO)[C@@H](O)[C@H]2O)cc1` [compound 64] came in with an IC50 of 70 nM. The same compound came in with an ED50 at 5 mg/kg in the data set with male SA rats [2] greater than 5 mg/kg.

`C[C@]1(CO)O[C@@H](n2cc(-c3ccccc3)c3c(Nc4ccccc4)ncnc32)[C@H](O)[C@@H]1O` [compound 81] came in with an IC50 on adenosine kinase of 2000 nM.

Turning to `O[C@H]1[C@H](n2cc(-c3ccccc3)c3c(Nc4ccc(F)cc4)ncnc32)OC2(CC2)[C@H]1O` [compound 150], the IC50 on adenosine kinase is 0.3 nM. Besides, the ED50 at 5 mg/kg with male SA rats [2] was found to be 0.23 mg/kg. In addition, in the data set on Rats, the “Carrageenan Paw (% inh) i.p.” value amounted to 78% and the “Carrageenan Paw (% inh) p.o.” value was 80%. For the same compound, in the data set with Female SA rats, the “average serum Total Bilirubin” value amounted to 1.58, the “average serum content of SGOT” value turned out to be 560 and the “average serum content of SGPT” value is reported as 155.

`Nc1ncnc2c1c(I)cn2[C@@H]1OC2(CC2)[C@@H](O)[C@H]1O` [compound 175]: it took 600 nM to reach half-maximal inhibition against adenosine kinase (IC50).

With `O[C@@H]1[C@H](O)CO[C@H]1n1cc(-c2ccccc2)c2c(Nc3ccc(Cl)cc3)ncnc21` [compound 299], the IC50 against adenosine kinase came out at 40 nM. For the same compound, in the data set on Rats, the “Carrageenan Paw (% inh) i.p.” value is on record as 20% and the “Carrageenan Paw (% inh) p.o.” value was determined as 28%.

In turn, `Nc1ncnc2c1c(I)cn2[C@@H]1OC[C@@H](O)[C@H]1O` [compound 300] displayed an IC50 against adenosine kinase of 6 nM. In addition, in the data set with Rats, the “Carrageenan Paw (% inh) i.p.” value is on record as 90% and the “Carrageenan Paw (% inh) p.o.” value is 91%.

On to `O[C@@H]1[C@H](O)CO[C@H]1n1cc(-c2ccccc2)c2c(Nc3ccc(CCN4CCOCC4)cc3)ncnc21` [compound 301], for which the IC50 at adenosine kinase was 1 nM. For the same compound, in the data set on Rats, the “Carrageenan Paw (% inh) i.p.” value was 21% and the “Carrageenan Paw (% inh) p.o.” value was determined as 39%.

On adenosine kinase, `COC[C@]1(CO)O[C@@H](n2cc(-c3ccccc3)c3c(Nc4ccc(F)cc4)ncnc32)[C@H](O)[C@@H]1O` [compound 352] had an IC50 of 400 nM.

At adenosine kinase, `COC[C@@]1(CO)O[C@@H](n2cc(-c3ccccc3)c3c(Nc4ccc(F)cc4)ncnc32)[C@H](O)[C@@H]1O` [compound 372] displayed an IC50 of 24 nM. The ED50 at 5 mg/kg in the data set on male SA rats [2] was greater than 5 mg/kg.

`NC[C@]1(CO)O[C@@H](n2cc(-c3ccccc3)c3c(Nc4ccc(F)cc4)ncnc32)[C@H](O)[C@@H]1O` [compound 392]: inhibition against adenosine kinase was half-maximal at 1100 nM (IC50).

Regarding `O[C@@H]1[C@H](O)CO[C@H]1n1nc(-c2ccc(Cl)cc2)c2c(Nc3ccccc3)ncnc21` [compound 432], the IC50 against adenosine kinase came out at 90 nM. This compound registered an ED50 at 5 mg/kg with male SA rats [2] greater than 5 mg/kg. Moreover, in the data set on Rats, the “Carrageenan Paw (% inh) i.p.” value stood at 24% and the “Carrageenan Paw (% inh) p.o.” value came out at 15%.
